Source: article PMC5059921, “Chalepin: isolated from Ruta angustifolia L. Pers induces mitochondrial mediated apoptosis in lung carcinoma cells” (BMC Complementary and Alternative Medicine, 2016)

Assays:
A549 cells [1] = experiment: Apoptosis detection by Annexin V-FITC/PI staining (flow cytometry); format: cell-based, human; settings: incubation time not stated
Experimental: FITC annexin V apoptosis detection kit (BD) was used to detect apoptosis. Cells were seeded in tissue culture dishes (5000-7000 cells/dish) and allowed to adhere overnight. Next, the cells were treated with various concentrations of chalepin for 48 and 72 h. The cells were harvested, washed, and resuspended in 1x binding buffer according to the manual provided in the kit. In the next step, the cells were stained in the ratio of per 100,000 cells; staining of cells with 5 μL of FITC-annexin V and 5 μL of propidium iodide was done for 15 min. Then, 200 μL of 1× binding buffer was added to each sample. Unstained and single-stained untreated cells were also included as controls. A minimum number of 10,000 events was acquired for each replicate using Accuri C6 flow cytometer. A quadrant statistic was used to measure the population of viable, early apoptotic, late apoptotic and secondary necrotic cells. The determination betweent these different populations were obtained by estimating quantitatively the cells that were AnnexinV/PI stained.

A549 cells [2] = experiment: DNA fragmentation by APO-BrdU TUNEL assay; format: cell-based, human
Experimental: DNA strand breaks in apoptotic cells caused by the activation of endonucleases, were detected by APO-BrdU TUNEL assay kit. After incubation with various concentrations of chalepin at 48 and 72 h, cells were harvested and washed with PBS. Next, the cells were fixed with 1 % (w/v) paraformaldehyde for 15 mins, then washed with PBS, and fixed with 70 % (v/v) ethanol overnight. Ethanol was removed by centrifugation and DNA labeling steps were performed according to the manual provided in the kit. Samples were analyzed by flow cytometer and a minimum of 10,000 events were acquired for each replicate.

A549 cells [3] = experiment: Mitochondrial membrane potential assay (JC-1, flow cytometry); format: cell-based; settings: Homo sapiens, A549, 48 h, read-out: JC-1 dot plot: Viable
Experimental: A lipophilic and cell-permeable fluorochrome JC-1 (5,5’,6,6’-tetrachloro-1,1’,3,3’-tetraethyl benzimidazolyl carbocyanine iodide), was used to measure mitochondrial membrane potential (Δψm) according to the manufacturer’s instructions (BD MitoScreen Kit). The cells (1×10^6) were seeded in tissue culture plates and were treated with 18, 27, 36, and 45 μg/ml of chalepin for 48 h incubation. The cells were then harvested, washed with PBS twice and incubated with JC-1 dye for 15 mins at 37°C. At the end of the incubation, the cells were washed and resuspended with 500 μl of 1x assay buffer (provided in the kit). The intracellular fluorescence signals of JC-1 in the cells were then measured with Accuri C6 flow cytometer. Approximately 10,000 events were recorded per analysis. In healthy cells, JC-1 accumulates as aggregates in the mitochondria and emits red fluorescence. In cells, which have undergone apoptosis, JC-1 remains in monomeric form in the cytoplasm and emits green fluorescence. The red and green fluorescence were detected at FL-2 and FL-1 channels respectively in the flow cytometer. Ratio of mean fluorescence intensity between the FL1 and FL2 channels were calculated and this is used to determine the changes in the mitochondrial membrane potential. The results were analysed by calculating the ratio of JC-1 dimers to JC-1 monomers. A […] ratio indicated a […] membrane depolarization of mitochondria in cells (BD MitoScreen Flow Cytometry Mitochondrial Membrane Potential Detection Kit Instruction Manual). Cells that was untreated in 0.5 % DMSO acted as the control.
JC-1 (5,5’,6,6’-tetrachloro-1,1’,3,3’-tetraethyl benzimidazolyl carbocyanine iodide) mitochondrial membrane potential assay kit by Abcam was used to stain the A549 cells to view the mitochondrial membrane potential (Δψm) changes in cells. Prior to the JC-1 staining initiation, 1x dilution buffer were prepared by adding 10 mL 10× dilution buffer to 90 mL deionized water. The solution was mixed gently and throughly. JC-1 stock (1mM) was diluted to 20 μM working JC-1 solution. This was done by adding 200 μl of JC-1 stock solution into 10 mL of 1× dilution buffer. The cells (1×10^6) were seeded in tissue culture plates and were treated with 18, 27, 36, and 45 μg/ml of chalepin for 48 and 72 h incubation. The cells were then harvested, washed with PBS twice and incubated with JC-1 dye for 20 mins at 37 °C. At the end of the incubation, the cells were washed and resuspended with 1000 μl of 1× dilution buffer. The cells were viewed using a fluorescence microscope at an excitation wavelength of Ex475 ± 20nm and emission wavelength of Em530 ± 15 nm and 590 ± 17.5 nm. The images were captured and recorded.

For `C=CC(C)(C)c1cc2cc3c(cc2oc1=O)O[C@H](C(C)(C)O)C3` [Chalepin, chalepin], the “Annexin V positive cells (early and late apoptotic)” value (A549 cells [1]; A549, 9 μg/ml) was 7.27 ± 0.16%, the “Annexin V positive cells (early and late apoptotic)” value (A549 cells [1]; A549, 45 μg/ml) was 20.6 ± 0.53% and the “DNA fragmentation, R3 (TUNEL positive cells)” value (from here on “DNA fragmentation, R3”) (A549 cells [2]; A549, 48 h, 45 μg/ml) was 38.5 ± 0.70%. The “DNA fragmentation, R3” value (A549 cells [2]; A549, 72 h, 36 μg/ml) was 73.50 ± 0.20%, the “DNA fragmentation, R3” value (A549 cells [2]; A549, 72 h, 45 μg/ml) was 66.50 ± 0.29% and the viability at 18 µg/mL (A549 cells [3]) was 78.3%. It also gave a viability at 27 µg/mL (A549 cells [3]) of 68.2%, a viability at 36 µg/mL (A549 cells [3]) of 54.2% and a viability at 45 µg/mL (A549 cells [3]) of 52.9%.
